From US12276654B2, “Chemical probe-dependent evaluation of protein activity and uses thereof” (The University of Chicago, priority 2017, dated 2025)

Biological target: T1, FAAH (Homo sapiens, UniProt O00519)
T1 construct: endogenous in cells
T1 sequence (O00519 1-579): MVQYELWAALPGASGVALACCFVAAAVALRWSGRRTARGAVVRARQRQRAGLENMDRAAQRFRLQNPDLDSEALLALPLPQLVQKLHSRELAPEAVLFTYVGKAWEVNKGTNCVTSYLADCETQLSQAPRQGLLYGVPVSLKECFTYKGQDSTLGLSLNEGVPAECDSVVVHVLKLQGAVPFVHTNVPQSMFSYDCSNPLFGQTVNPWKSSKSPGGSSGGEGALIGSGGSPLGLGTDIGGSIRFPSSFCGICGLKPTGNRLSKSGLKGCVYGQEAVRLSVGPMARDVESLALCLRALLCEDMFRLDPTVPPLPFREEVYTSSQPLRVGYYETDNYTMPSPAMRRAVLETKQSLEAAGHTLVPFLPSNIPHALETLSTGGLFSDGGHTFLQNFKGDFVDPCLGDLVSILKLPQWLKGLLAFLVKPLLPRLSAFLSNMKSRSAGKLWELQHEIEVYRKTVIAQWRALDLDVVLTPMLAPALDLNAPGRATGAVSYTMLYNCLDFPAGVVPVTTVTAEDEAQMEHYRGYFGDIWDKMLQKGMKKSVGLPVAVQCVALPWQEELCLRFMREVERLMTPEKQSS
Assay: sADPL in situ target engagement in cancer cells, FAAH
Assay type: cell-based
Settings: inhibitor prior to family-wide probe
Description: FIG. 23. In situ Target Engagement. Cancer cells were treated with DMSO as the control, with inhibitor prior to family wide probe to pre-block the active site, or with family-wide probe directly. Then sADPL workflow was applied to read out the CT difference. Serine hydrolase NCEH1 and its specific inhibitor JW480, or FAAH and inhibitor PF3845 were applied. The activity fold change was transformed from CT value with PCR amplification factor 1.91 determined by a standard qPCR curve and the activities were normalized to DMSO control at different cell lysate concentrations. […] To quantitatively measure the target engagement, different dose of JW480 was applied to either its target NCEH1, or off-target MGLL.
As another alternative detection method, sADPL is complementary with gel-based and MS-based detection methods. In this design, the inventors treat the live cell with several family-wide probes. The probes will label all the members of the protein families. Then one could get the labeled proteome after the cell lysis. […]
A summary of this assay is provided below: • 1. […] In the oligo design, the orthogonal forward primers were employed for different antibody to enable the multiplexing real time PCR readout. […]
Two amine modified oligos were conjugated to antibody and streptavidin, respectively. […] A Taqman probe was designed for real time PCR quantification. […]

O=C(Nc1cccnc1)N1CCC(Cc2cccc(Oc3ccc(C(F)(F)F)cn3)c2)CC1 [PF3845]
FAAH activity in inhibitor competition group by sADPL, normalized to DMSO control: bring the activities down to the levels of DMSO controls
